Results on one compound are retold here after publication PMC2211560 (PLoS Medicine, 2008).

One series deals with mTOR. The experiment in a line: S6 ribosomal protein phosphorylation in tumor tissue by IHC (S2 versus S1). The settings on record: ratio of median IHC staining score S2 to S1, individual patients. In kind it is in vivo, human. The text has this:
(§1) To quantify mTOR activity in matched S1 and S2 samples, we measured phosphorylation of S6 ribosomal protein by immunohistochemistry using two distinct phosphosite antibodies directed against Ser235/236 or Ser240/244. […] Immunohistochemistry (IHC) scoring is described in detail in Text S1.
(§2) The following antibodies were used for IHC: anti-PTEN (6H2.1, #ABM-2052, Cascade BioScience; 1:400 dilution), anti-Ki-67 (MIB-1, M7240, DakoCytomation; 1:100 Dilution), anti-phospho Ser235/236 S6 (91B2, #4857, Cell Signaling; 1:50 dilution), anti phospho Ser240/244 S6 (#2215, Cell Signaling; 1:200 dilution), anti-phospho-PRAS 40 (#44–1100G, Biosource; 1:200 dilution), anti-phospho Ser473 Akt (736E11, #3787, Cell Signaling; 1:50 dilution), anti-phospho Thr389 p70 S6 Kinase (#9205, Cell Signaling; 1:100 Dilution), and anti phospho Ser1108 eIF4G at 1:400 (#2441, Cell Signaling; 1:400 dilution). Antigen retrieval was performed using 0.01 M citrate buffer, pH 6.0 for 30 min in an oven and peroxidase activity was quenched with 3% hydrogen peroxide in water. Primary antibodies were diluted in PBS /2% bovine serum albumin/2% normal horse serum (for anti-PTEN) or TBS/0.1% Tween/5% normal goat serum (for phosphosite-specific antibodies) and applied overnight at 4 °C. Biotinylated secondary antibodies (Vector) were applied at 1:200 dilution for 45 min, and the avidin-biotin complex (Elite ABC, Vector) for 30 min. Vector NovaRed was used as the enzyme substrate to visualize specific antibody localization. […] All slides were counterstained with Harris hematoxylin.
To quantify mTOR activity, we measured phosphorylation of S6 ribosomal protein by immunohistochemistry. S6 is a direct substrate of S6 kinase 1, a downstream effector of mTOR action, and has been widely used as a pharmacodynamic readout of mTOR inhibition in preclinical studies. To ensure specificity, we used two distinct phosphosite antibodies directed against Ser235/236 or Ser240/244 (Figure 2B). Both sites are directly phosphorylated by S6 kinase 1, but Ser235/236 can also be phosphorylated by p90 ribosomal S6 kinase (RSK) and other kinases. All measurements were quantified by digital readout of 2,500–5,000 tumor cells per slide cut from paraffin-embedded tissue (Figure S1).
Supplementary file pmed.0050008.sg001.pdf: Figure S1 Digital Scoring of Immunohistochemical Stains Adjacent tissue sections from each tumor were stained with antibodies against Ki-67, phospho S6 ribosomal protein (S6RP), phospho-PRAS40, and PTEN (unpublished data). Five areas per slide, each representing approximately 500–1,000 tumor cells, were selected for digital scoring. Image conversion and scoring was performed using Soft Imaging System Software. The distribution of immunoreactivity within these 2,500–5,000 cells was graphed for each sample as a box plot. The “fold change” (F.C.) in S6 immunoreactivity (Table 2 and Figure S2) was calculated for each tumor as the ratio between median staining score in the S2 and the median staining score in the S1 sample. (135 KB PDF) Click here for additional data file.
Scoring of immunohistochemical stains. Immunohistochemical screening of tumor samples for PTEN expression was based on a manual scoring method which compares PTEN staining of tumor cells to the PTEN staining of endothelial cells within the same viewfield and assigns scores of 0 (absent in tumor cells), 1 (reduced in tumor cells relative to endothelial cells), and 2 (tumor cells staining similar to endothelial cells). Digital scores for PTEN, phospho-S6, and phospho-PRAS40 are based on absolute staining intensity of tumor cells as quantified following false-color conversion.

The subject of series [1] is PTEN-deficient glioblastoma. The experiment in a line: Ki-67 labeling index of tumor tissue (S2 versus S1). It is filed as in vivo, human. The following applies: for Ki-67 Decrease: about 1 wk pre-operative, S2 vs S1, individual patients.
Description: as §1
The following antibodies were used for IHC: anti-PTEN (6H2.1, #ABM-2052, Cascade BioScience; 1:400 dilution), anti-Ki-67 (MIB-1, M7240, DakoCytomation; 1:100 Dilution), anti-phospho Ser235/236 S6 (91B2, #4857, Cell Signaling; 1:50 dilution), anti phospho Ser240/244 S6 (#2215, Cell Signaling; 1:200 dilution), anti-phospho-PRAS 40 (#44–1100G, Biosource; 1:200 dilution), anti-phospho Ser473 Akt (736E11, #3787, Cell Signaling; 1:50 dilution), anti-phospho Thr389 p70 S6 Kinase (#9205, Cell Signaling; 1:100 Dilution), and anti phospho Ser1108 eIF4G at 1:400 (#2441, Cell Signaling; 1:400 dilution). Antigen retrieval was performed using 0.01 M citrate buffer, pH 6.0 for 30 min in an oven and peroxidase activity was quenched with 3% hydrogen peroxide in water. Primary antibodies were diluted in PBS /2% bovine serum albumin/2% normal horse serum (for anti-PTEN) or TBS/0.1% Tween/5% normal goat serum (for phosphosite-specific antibodies) and applied overnight at 4 °C. […]
(§3) Scoring of immunohistochemical stains. […] Digital scores for PTEN, phospho-S6, and phospho-PRAS40 are based on absolute staining intensity of tumor cells as quantified following false-color conversion. PTEN, phospho-S6, phospho-PRAS40, and Ki-67 were scored in representative and matching areas of consecutive tissue sections (Suppl. Fig. 1), excluding areas with large vessels and/or prominent reactive changes (e.g., reactive astrogliosis or lymphocytic infiltration). […] Quantitative analysis was done using HSI color algorithm based on hue, saturation and intensity. Saturations of the separated cell in the images were quantified in the red-brown hue range to exclude the negative staining area with hematoxylin nuclear staining. To compare the staining intensity of all slides, mean saturation of total cells on each image was quantified and calculated. For Ki-67 staining scoring, separated cells were quantified with red brown hue range (positive staining) and total hue range (all cells) after cell border separation and Ki-67 labeling index was calculated based on these numbers. For p-PRAS40 scoring, mean saturation of the positive staining tumor cells was quantified in the red-brown hue range, followed by multiplying the positive cell ratio in the same image to evaluate both staining intensity and staining distribution. pS473 Akt was quantified on a scale of 0-2; 0^+ = no staining, 1^+ = mild intensity cytoplasmic staining, and 2^+ = strong cytoplasmic staining. […]

For another series, the system named is Akt. The series can be described thus: PRAS40 (threonine 246) phosphorylation in tumor tissue by IHC. The settings on record: for pPRAS 40 Induction: statistically significant increase S2 vs S1 (p < 0.05, Wilcoxon), individual patients. It is filed as in vivo, human.
Description: as §2
We assessed Akt activity in S1 and S2 samples in the rapamycin-treated patients using phosphosite-specific antibodies against the serine/threonine kinase Akt (serine 473) and its downstream substrate PRAS 40 (threonine 246), which serves as a biomarker for Akt activity (Figure 4A). PRAS40 has also been recently shown to inhibit mTOR, and this inhibition is relieved by Akt phosphorylation.
as §3, with “numbers.” for “numbers. For p-PRAS40 scoring, mean saturation of the positive staining tumor cells was quantified in the red-brown hue range, followed by multiplying the positive cell ratio in the same image to evaluate both staining intensity and staining distribution. pS473 Akt was quantified on a scale of 0-2; 0^+ = no staining, 1^+ = mild intensity cytoplasmic staining, and 2^+ = strong cytoplasmic staining.”

For series [2] the following is noted: human, in vivo, cited from earlier work.
Series [3] relates to cytochrome P450 isoenzyme 3A4. The settings on record: cited from earlier work.

Where “and” joins values, the source holds several entries; their conditions need not be identical. Identical values can stand only once.

Usually Vdss stands for a proportionality between amount in the body and measured concentration, not a real space. The term half-life denotes the time needed for the level to fall by half in the phase considered. For the compound `CO[C@H]1C[C@@H]2CC[C@@H](C)[C@@](O)(O2)C(=O)C(=O)N2CCCC[C@H]2C(=O)O[C@H]([C@H](C)C[C@@H]2CC[C@@H](O)[C@H](OC)C2)CC(=O)[C@H](C)/C=C(\C)[C@@H](O)[C@@H](OC)C(=O)[C@H](C)C[C@H](C)/C=C/C=C/C=C/1C` [Rapamycin], the “pS6 S2/S1 pSer235/236” value in the series on mTOR (2 mg oral daily) was 0.46 and 1.01; with mTOR (5 mg oral daily), 0.91 and 0.48 and 0.22 and 0.77 and 1.16; with mTOR (10 mg oral daily) it was 0.78 and 0.55 and 0.19 and 0.81 and 1.50 and 0.60. The “pS6 S2/S1 pSer240/244” value with mTOR (2 mg oral daily) was 0.61 and 0.82 and 0.85; in the series on mTOR (5 mg oral daily) it was 0.94 and 0.51 and 0.18 and 0.58 and 0.54; in the series on mTOR (10 mg oral daily), 0.27 and 0.58 and 0.44 and 0.60 and 0.56 and 0.91. Besides, the “Ki-67 Decrease” value was “Yes and No” in series [1] (2 mg oral daily); “No and Yes” in series [1] (5 mg oral daily); “Yes and No” in series [1] (10 mg oral daily). Moreover, in series [1] (Ki-67 staining after about 1 wk of rapamycin), the “patients with nearly complete inhibition (dramatic reduction) of tumor cell proliferation” value is “seven of 14 and 7/14”. Further, the “pPRAS 40 Induction” value in the series on Akt (2 mg oral daily) was “Yes”; in the series on Akt (5 mg oral daily), “No and Yes”; in the series on Akt (10 mg oral daily), “Yes and No”. Further, the “patients with statistically significant increase in PRAS40 phosphorylation in S2 sample” value in the series on Akt (Seven of 14 patients, p < 0.05, Wilcoxon test) is reported as 50%. In addition, the Vdss in series [2] (iv) was 1.1 to 1.3 L/kg. In addition, the half-life in series [2] was 40 to 60 h. In addition, in series [3], the “cytochrome P450 substrate” value is on record as “substrate for the cytochrome P450 isoenzyme 3A4”.
